Experimental data as given in article PMC11031283 (ACS synthetic biology, 2024).

Molecular target: EncM (Streptomyces maritimus, UniProt Q9KHK2)
Assay: LC-MS product formation, low activity
Format: biochemical
Details: in vitro purified enzyme; not detected in lysate

## CCCCCc1cc(O)c(C/C=C(\C)CCC=C(C)C)c(O)c1C(=O)O [compound 3, cannabigerolic acid]
  LC-MS product formation, low activity: several other enzymes had low activity not detected in lysate assays, including EncM
